From ChEMBL document CHEMBL1123770, “Systematic synthesis and biological evaluation of alpha- and beta-D-lyxofuranosyl nucleosides of the five naturally occurring nucleic acid bases” (1987) come the findings set out here.

Experiment [1] concerns HeLa. The experiment in a line: Minimum inhibitory concentration (MIC) required to reduce virus-induced cytopathogenicity by 50% against Coxsackie virus B4 in HeLa cells. In kind it is functional. The note with it: Homo sapiens. (In general: Damage to the host cells serves as the signal in cytopathic effect assays.)
Experiment [2] relates to HeLa. The experiment in a line: Minimum cytotoxic concentration (MCC) required to cause a microscopically detectable alteration of host cell morphology, when incubated with HeLa cells. Format: functional. The note with it: Homo sapiens.
The next experiment concerns Monkey. The experiment in a line: Minimum inhibitory concentration (MIC) required to reduce virus-induced cytopathogenicity by 50% against forest virus in African green monkey kidney (Vero B)cells. The note with it: Cercopithecidae. Format: functional, Chlorocebus sabaeus.
Experiment [3] in a line: Minimum cytotoxic concentration (MCC) required to cause a microscopically detectable alteration of host cell morphology, when incubated with PRK cells. Format: functional. The note with it: Oryctolagus cuniculus.
The test system of experiment [4] is Vero. The experiment in a line: Minimum cytotoxic concentration (MCC) required to cause a microscopically detectable alteration of host cell morphology, when incubated with Vero B cells. Format: functional. The note with it: Chlorocebus sabaeus.
The test system of experiment [5] is Vero. The experiment in a line: Minimum inhibitory concentration (MIC) required to reduce virus-induced cytopathogenicity by 50% against Coxsackie virus B4 in African green monkey kidney (Vero B)cells. In kind it is functional, Chlorocebus sabaeus. The note with it: Chlorocebus sabaeus; read-out: MIC.
Experiment [6] relates to WI-38. The experiment in a line: Minimum cytotoxic concentration (MCC) required to cause a microscopically detectable alteration of host cell morphology, when incubated with WI-38 cells. In kind it is functional. As to conditions: Homo sapiens.
The subject of experiment [7] is WI-38. The experiment in a line: Minimum inhibitory concentration (MIC) required to reduce virus-induced cytopathogenicity by 50% against Rhinovirus 9 in human diploid (WI-38)cells. Format: functional. The note with it: Homo sapiens; read-out: MIC.
Experiment [8] deals with WI-38. The experiment in a line: Minimum inhibitory concentration (MIC) required to reduce virus-induced cytopathogenicity by 50% against Rhinovirus-1A in human diploid (WI-38)cells. Format: functional.
Experiment [9] relates to Vero. The experiment in a line: Minimum inhibitory concentration (MIC) required to reduce virus-induced cytopathogenicity by 50% against Parainfluenza virus-3 in African green monkey kidney (Vero B)cells. In kind it is functional, Chlorocebus sabaeus. The note with it: Chlorocebus sabaeus; read-out: MIC.
The subject of experiment [10] is Vero. The experiment in a line: Minimum inhibitory concentration (MIC) required to reduce virus-induced cytopathogenicity by 50% against Reo virus-1 in African green monkey kidney (Vero B)cells. In kind it is functional, Chlorocebus sabaeus. As to conditions: Chlorocebus sabaeus; read-out: MIC.
Experiment [11] has as its system Vero. The experiment in a line: Minimum inhibitory concentration (MIC) required to reduce virus-induced cytopathogenicity by 50% against Sindbis virus in African green monkey kidney (Vero B)cells. In kind it is functional. As to conditions: Chlorocebus sabaeus.
The species entered for experiment [12] is Oryctolagus cuniculus. The experiment in a line: Minimum inhibitory concentration (MIC) required to reduce virus-induced cytopathogenicity by 50% against G strain of Herpes simplex virus-2 in primary rabbit kidney cells. The note with it: Oryctolagus cuniculus; read-out: MIC. Format: functional.
For experiment [13], the species on record is Oryctolagus cuniculus. The experiment in a line: Minimum inhibitory concentration (MIC) required to reduce virus-induced cytopathogenicity by 50% against KOS strain of Herpes simplex virus-1 in primary rabbit kidney cells. Format: functional.
For experiment [14], the species on record is Mus musculus. The experiment in a line: Number of mice normal, without lesion after HSV-1 infection observed from day 0 to day 3. Format: functional.
For experiment [15], the species on record is Mus musculus. The experiment in a line: Number of mice normal, without lesion after HSV-2 infection observed from day 0 to day 3. Format: functional.
The species named for experiment [16] is Mus musculus. The experiment in a line: Number of mice normal, without lesion after HSV-2 infection observed from day 12 to day 20. In kind it is functional.
Experiment [17] is filed under the species Mus musculus. The experiment in a line: Survival rate at 20th day expressed as number of mice survived infected with HSV-1; out of 10. In kind it is functional.
The species entered for experiment [18] is Mus musculus. The experiment in a line: Survival rate at 20th day expressed as number of mice survived infected with HSV-2; out of 10. Format: functional.
Experiment [19] in a line: Inhibitory effect on 196 strain of Herper simplex virus-2 yield, in primary rabbit kidney cell culture 4 ug/mL concentration after 24 hours. In kind it is functional, Oryctolagus cuniculus.
A short description of experiment [20]: Inhibitory effect on 196 strain of Herper simplex virus-2 yield, in primary rabbit kidney cell culture 4 ug/mL concentration after 48 hours. Format: functional, Oryctolagus cuniculus.
A short description of experiment [21]: Inhibitory effect on KOS strain of Herper simplex virus-1 yield, in primary rabbit kidney cell culture 0.04 ug/mL concentration after 48 hours. In kind it is functional, Oryctolagus cuniculus.
Experiment [22] is described as follows: Inhibitory effect on KOS strain of Herper simplex virus-1 yield, in primary rabbit kidney cell culture 0.1 ug/mL concentration after 48 hours. In kind it is functional, Oryctolagus cuniculus.
Experiment [23] can be described thus: Inhibitory effect on KOS strain of Herper simplex virus-1 yield, in primary rabbit kidney cell culture 0.4 ug/mL concentration after 48 hours. In kind it is functional, Oryctolagus cuniculus.
Experiment [24] is described as follows: Inhibitory effect on KOS strain of Herper simplex virus-1 yield, in primary rabbit kidney cell culture 1 ug/mL concentration after 48 hours. Format: functional, Oryctolagus cuniculus.
Experiment [25] is described as follows: Inhibitory effect on KOS strain of Herper simplex virus-1 yield, in primary rabbit kidney cell culture 4 ug/mL concentration after 48 hours. Format: functional, Oryctolagus cuniculus.
Experiment [26] in a line: Inhibitory effect on KOS strain of Herper simplex virus-1 yield, in primary rabbit kidney cell culture at 0.04 ug/mL concentration after 24 hours. In kind it is functional, Oryctolagus cuniculus.
Experiment [27] is described as follows: Inhibitory effect on KOS strain of Herper simplex virus-1 yield, in primary rabbit kidney cell culture at 0.4 ug/mL concentration after 24 hours. Format: functional, Oryctolagus cuniculus.
Experiment [28] is described as follows: Inhibitory effect on KOS strain of Herper simplex virus-1 yield, in primary rabbit kidney cell culture at 1 ug/mL concentration after 24 hours. In kind it is functional, Oryctolagus cuniculus.
The nature of experiment [29]: Inhibitory effect on KOS strain of Herper simplex virus-1 yield, in primary rabbit kidney cell culture at 4 ug/mL concentration after 24 hours. Format: functional, Oryctolagus cuniculus.
A short description of experiment [30]: Inhibitory effect on 196 strain of Herper simplex virus-2 yield, in primary rabbit kidney cell culture 0.04 ug/mL concentration after 24 hours. Format: functional, Oryctolagus cuniculus.
A short description of experiment [31]: Inhibitory effect on 196 strain of Herper simplex virus-2 yield, in primary rabbit kidney cell culture 0.04 ug/mL concentration after 48 hours. Format: functional, Oryctolagus cuniculus.
Experiment [32] is described as follows: Inhibitory effect on 196 strain of Herper simplex virus-2 yield, in primary rabbit kidney cell culture 0.1 ug/mL concentration after 24 hours. Format: functional, Oryctolagus cuniculus.
Experiment [33] can be described thus: Inhibitory effect on 196 strain of Herper simplex virus-2 yield, in primary rabbit kidney cell culture 0.1 ug/mL concentration after 48 hours. Format: functional, Oryctolagus cuniculus.
The nature of experiment [34]: Inhibitory effect on 196 strain of Herper simplex virus-2 yield, in primary rabbit kidney cell culture 0.4 ug/mL concentration after 24 hours. Format: functional, Oryctolagus cuniculus.
A short description of experiment [35]: Inhibitory effect on 196 strain of Herper simplex virus-2 yield, in primary rabbit kidney cell culture 0.4 ug/mL concentration after 48 hours. Format: functional, Oryctolagus cuniculus.
The nature of experiment [36]: Inhibitory effect on 196 strain of Herper simplex virus-2 yield, in primary rabbit kidney cell culture 1 ug/mL concentration after 24 hours. Format: functional, Oryctolagus cuniculus.
The nature of experiment [37]: Inhibitory effect on 196 strain of Herper simplex virus-2 yield, in primary rabbit kidney cell culture 1 ug/mL concentration after 48 hours. In kind it is functional, Oryctolagus cuniculus.
The species named for experiment [38] is Mus musculus. The experiment in a line: Number of mice normal, without lesion after HSV-1 infection observed from day 12 to day 20. In kind it is functional.
Experiment [39] is described as follows: Inhibitory effect on KOS strain of Herper simplex virus-1 yield, in primary rabbit kidney cell culture at 0.1 ug/mL concentration after 24 hours. In kind it is functional, Oryctolagus cuniculus.

Molecules are shown by their SMILES.

For `Cc1cn([C@@H]2O[C@H](CO)[C@H](O)[C@@H]2O)c(=O)[nH]c1=O`, the MIC is more than 400 µg/mL against HeLa [1]; more than 400 µg/mL in the experiment with Monkey; more than 400 µg/mL in the experiment with Vero [5]; more than 150 µg/mL with WI-38 [7]; more than 400 µg/mL in the experiment on WI-38 [8]; more than 400 µg/mL with Vero [9]. For the same compound, the MIC in the experiment with Vero [10], in the experiment on Vero [11], in the experiment listed under Oryctolagus cuniculus [12] and in the experiment listed under Oryctolagus cuniculus [13] was more than 400 µg/mL each time. The MCC (in the experiment with HeLa [2]; in [3]; in the experiment on Vero [4]; with WI-38 [6]) was more than 400 µg/mL each time.
Take `Nc1nc2c(ncn2COCCO)c(=O)[nH]1` [ACYCLOVIR]: the No. of mice was determined as 10 in the experiment filed under Mus musculus [14], 10 in the experiment listed under Mus musculus [15], 5 in the experiment listed under Mus musculus [16] and 10 in the experiment filed under Mus musculus [38]. The figures for the Survival rate in the experiment filed under Mus musculus [17] and in the experiment filed under Mus musculus [18] were 10 and 5, respectively. The Virus yield in experiment [19] is less than 2 log pfu ml-1; in experiment [20], 3.8 log pfu ml-1; in [21], 5.9 log pfu ml-1; in experiment [22], 5.6 log pfu ml-1; in experiment [23] it was 5 log pfu ml-1; in [24] it was 5.3 log pfu ml-1. For the same compound, the Virus yield was found to be 3.3 log pfu ml-1 in experiment [25]; 5.6 log pfu ml-1 in experiment [26]; 4.1 log pfu ml-1 in experiment [27]; 3.6 log pfu ml-1 in experiment [28]; 2 log pfu ml-1 in [29]; 5.8 log pfu ml-1 in [30]. The Virus yield turned out to be 5.7 log pfu ml-1 in [31]; 4.8 log pfu ml-1 in experiment [32]; 5.6 log pfu ml-1 in experiment [33]; 4.1 log pfu ml-1 in experiment [34]; 5 log pfu ml-1 in [35]; 3.1 log pfu ml-1 in [36]. The Virus yield in experiment [37] was found to be 5.3 log pfu ml-1; in experiment [39], 5.2 log pfu ml-1.
